This is an account of results in ChEMBL document CHEMBL1123955, “Improved delivery through biological membranes. 32. Synthesis and biological activity of brain-targeted delivery systems for various estradiol derivatives” (J Med Chem, 1988).

Structures are written as SMILES. Where “and” joins values, the source holds several entries; their conditions need not be identical. Identical values can stand only once.

For series [1], the system named is Rattus norvegicus. Briefly: Concentration in brain 3 hr after administration of compound 4d. It counts as functional, organism-based.
For series [2], the system named is Rattus norvegicus. Put plainly: Concentration in brain 6 hr after administration of compound 4d. Type of series: functional, organism-based.
Series [3] deals with Rattus norvegicus. Put plainly: Concentration in brain hr after administration of compound 4d. Type of series: functional, organism-based.
Series [4] deals with Rattus norvegicus. Briefly: Concentration in brain 24 hr after administration of compound 4d. Type of series: functional, organism-based.
In series [5] the test system is Rattus norvegicus. Put plainly: Concentration in blood 0.25 hr after administration of compound 4d. It counts as functional, organism-based.
The test system of series [6] is Rattus norvegicus. Briefly: Concentration in blood 1 hr after administration of compound 4d. It counts as functional, organism-based.
The test system of series [7] is Rattus norvegicus. Put plainly: Concentration in brain 0.25 hr after administration of compound 4d. It counts as functional, organism-based.
The nature of series [8]: Half life in whole rat blood. It counts as ADME.
A short description of series [9]: Half life in brain homogenate. Type of series: ADME, tissue-based.
Series [10] can be described thus: Half life in liver homogenate. It counts as ADME, tissue-based.
Series [11] in a line: Partition coefficient (logP). The note with it: octanol/water. Type of series: physicochemical.
Series [12] is described as follows: Rate constant in brain homogenate. Type of series: ADME, tissue-based.
The nature of series [13]: Rate constant in liver homogenate. Type of series: ADME, tissue-based. The settings on record: tissue homogenate.
Series [14] is filed under the species Rattus norvegicus. Put plainly: Rate constant in whole rat blood. It counts as ADME.

In the case of `C#C[C@]1(OC(=O)c2ccc[n+](C)c2)CC[C@H]2[C@@H]3CCc4cc(O)ccc4[C@H]3CC[C@@]21C`, the Concentration in the series on Rattus norvegicus [1] was 7.35 ng/g; in the series with Rattus norvegicus [2], 7.07 ng/g; in the series on Rattus norvegicus [3] it was 7.16 ng/g and 7.35 ng/g; with Rattus norvegicus [4] it was 7.79 ng/g; in the series with Rattus norvegicus [5], 0.822 ng/g; in the series on Rattus norvegicus [6] it was 0.552 ng/g. Moreover, the Concentration in the series with Rattus norvegicus [7] came to 7.16 ng/g.

What is called half-life is how long it takes for the measured level to halve. The low end stands for rapid decline, the high end for slow decline. As usually defined, the logP is the decadic logarithm of the partition coefficient of the neutral form, usually between octanol and water. Lower therefore signals lower lipophilicity. As to `C#C[C@]1(OC(=O)C2=CN(C)C=CC2)CC[C@H]2[C@@H]3CCc4cc(O)ccc4[C@H]3CC[C@@]21C`, the half-life in series [8] worked out at 49.9 min; in [9] it was 12.4 min; in series [10] it was 24.5 min. Further, the logP in [11] was determined as 4.53. In addition, the k in series [12] worked out at 0.0567 min⁻¹; in series [13], 0.0227 min⁻¹; in the series listed under Rattus norvegicus [14], 0.0139 min⁻¹.

For `CN1C=CCC(C(=O)O[C@H]2CC[C@H]3[C@@H]4CCc5cc(O)ccc5[C@H]4CC[C@]23C)=C1`, the half-life in series [8] was 39.6 min; in series [9] it was 12.9 min; in [10] it was 30.5 min. The compound also displayed a logP in [11] of 4.5. Besides, the k in [12] was found to be 0.0537 min⁻¹; in series [13] it was 0.0283 min⁻¹; in the series listed under Rattus norvegicus [14] it was 0.0175 min⁻¹.
